According to ChEMBL document CHEMBL3885861, “Open TG-GATES”:

Organism: Rattus norvegicus
Assay: Open TG-GATES - Regimen: Daily Repeat
Assay type: toxicity, organism-based, Sprague-Dawley
Set-up: regimen Daily Repeat, gender Male, age 6 weeks
Conditions: in vivo, po, 1000 mg/kg, route gavage, dose level High; for APTT / Bas / Eos / Fbg / Hb / Ht / Lym / MCH / MCHC / MCV / Mono / Neu / PT / Plat / RBC / Ret / WBC: tissue Blood
[1] = 72 h, tissue Kidney, time 3 day
[2] = 72 h, tissue Plasma, time 3 day

**Q.** What does the source list for `CCOC(=O)CCC(=O)O[C@H]1[C@H](O[C@@H]2[C@@H](C)[C@H](O[C@H]3C[C@@](C)(OC)[C@@H](O)[C@H](C)O3)[C@@H](C)C(=O)O[C@H](CC)[C@@](C)(O)[C@H](O)[C@@H](C)C(=O)[C@H](C)C[C@@]2(C)O)O[C@H](C)C[C@@H]1N(C)C` [ERYTHROMYCIN ETHYLSUCCINATE]?
**A.** TERMINAL_BW (72 h, time 3 day): 226.1 g; APTT (72 h, time 3 day): 20.6 s; Bas (72 h, time 3 day): 0%; Eos (72 h, time 3 day): 1%; Fbg (72 h, time 3 day): 325 mg/dL; Hb (72 h, time 3 day): 14.4 g/dL; Ht (72 h, time 3 day): 41.8%; Lym (72 h, time 3 day): 86.4%; MCH (72 h, time 3 day): 21.2 pg; MCHC (72 h, time 3 day): 34.4%; MCV (72 h, time 3 day): 61.6 fL; Mono (72 h, time 3 day): 3%; Neu (72 h, time 3 day): 8.6%; PT (72 h, time 3 day): 15.7 s; Plat (72 h, time 3 day): 125 x10_4/uL; RBC (72 h, time 3 day): 679.6 x10_4/ul; Ret (72 h, time 3 day): 3.4%; WBC (72 h, time 3 day): 68.6 x10_2/uL; KIDNEY_L [1]: 1 g; KIDNEY_R [1]: 1 g; KIDNEY_TOTAL [1]: 2 g; LIVER (72 h, tissue Liver, time 3 day): 9.5 g; A/G [2]: 1.2; ALP [2]: 1860.4 IU/L; ALT [2]: 38.2 IU/L; AST [2]: 67.4 IU/L; BUN [2]: 17 mg/dL; CRE [2]: 0.2 mg/dL; Ca [2]: 10.5 mg/dL; Cl [2]: 108.4 meq/L; DBIL [2]: 0.002 mg/dL; GLC [2]: 178 mg/dL; IP [2]: 7.2 mg/dL; K [2]: 4.2 meq/L; LDH [2]: 198.2 IU/L; Na [2]: 141.8 meq/L; PL [2]: 155.6 mg/dL; RALB [2]: 3.1 g/dL; TBIL [2]: 0.032 mg/dL; TC [2]: 95.2 mg/dL; TG [2]: 58.4 mg/dL; TP [2]: 5.7 g/dL; gamma-GTP [2]: 1.4 IU/L; TERMINAL_BW ([…], time 7 day): 250.4 g; TERMINAL_BW ([…], time 14 day): 298.7 g; TERMINAL_BW ([…], time 28 day): 358.6 g; APTT ([…], time 7 day): 21.4 s; Bas ([…], time 7 day): 0%; Eos ([…], time 7 day): 1%; Fbg ([…], time 7 day): 338.6 mg/dL; Hb ([…], time 7 day): 13.6 g/dL; Ht ([…], time 7 day): 40.3%; Lym ([…], time 7 day): 81.6%; MCH ([…], time 7 day): 20.5 pg; MCHC ([…], time 7 day): 33.9%; MCV ([…], time 7 day): 60.4 fL; Mono ([…], time 7 day): 2.2%; Neu ([…], time 7 day): 14%; PT ([…], time 7 day): 16.6 s; Plat ([…], time 7 day): 112.5 x10_4/uL; RBC ([…], time 7 day): 666.4 x10_4/ul; Ret ([…], time 7 day): 3.8%; WBC ([…], time 7 day): 93.3 x10_2/uL; APTT ([…], time 14 day): 20.5 s; Bas ([…], time 14 day): 0%; Eos ([…], time 14 day): 0.8%; Fbg ([…], time 14 day): 327.6 mg/dL; Hb ([…], time 14 day): 14.2 g/dL; Ht ([…], time 14 day): 40.6%; Lym ([…], time 14 day): 83%; MCH ([…], time 14 day): 20.5 pg; MCHC ([…], time 14 day): 34.8%; MCV ([…], time 14 day): 59 fL; Mono ([…], time 14 day): 3.2%; Neu ([…], time 14 day): 11.4%; PT ([…], time 14 day): 16.2 s; Plat ([…], time 14 day): 107.4 x10_4/uL; RBC ([…], time 14 day): 690 x10_4/ul; Ret ([…], time 14 day): 4.6%; WBC ([…], time 14 day): 91.9 x10_2/uL; APTT ([…], time 28 day): 24.9 s; Bas ([…], time 28 day): 0%; Eos ([…], time 28 day): 1%; Fbg ([…], time 28 day): 340.4 mg/dL; Hb ([…], time 28 day): 15.2 g/dL; Ht ([…], time 28 day): 43.7%
